From patent US20250223268A1, “4-Methylsulfonylbenzamide Compound, Preparation Method, Herbicidal Composition And Use” (Jiangsu Flag Chemical Industry Co., Ltd., priority 2022, published 2025)

Assays:
Assay type in all cases: in vivo
Echinochloa crusgalli [1] = assay: Greenhouse herbicidal activity and crop safety comparison (Test Example 2); conditions: for inhibition at 75 g/ha / inhibition at 150 g/ha: Echinochloa crus-galli, read-out: Echinochloa crusgalli, control efficacy grading (fresh weight inhibition rate)
Excerpt: (§1) Pre-emergence: Seeds of gramineous weeds (Echinochloa crusgalli, Echinochloa crusgalli var. zelayensis, Echinochloa phyllopogon, Eleusine indica, Digitaria sanguinalis, Leptochloa chinensis, Setaria viridis, Alopecurus japonicus Steud, Beckmannia syzigachne, Polypogon fugax, Alopecurus aequalis, Lolium multiflorum, Poa annua, Aegilops tataschii, Avena fatua, Alopecurus myosuroides, Bromus japonicus), broadleaf weeds (Eclipta prostrata, Amaranthus retroflexus, Rorippa indica, Myosoton aquaticum, Veronica didyma, Galium aparine, Solanum nigrum, Xanthium sibiricum, Conyza canadensis, Sesbania cannabina, Sagittaria trifolia), and Cyperus iria (Cyperus iria, Scirpus juncoides, Cyperus difformis, etc.) were sown in plastic pots (7 cm diameter) with nutrient soil and bottom holes. Crop seeds (including Oryza sativa subsp. indica, Oryza sativa subsp. japonica, Oryza sativa L. var. Glutinosa matsum, Triticum aestivum, Zea mays, Sorghum bicolor, Setaria italica, Glycine max, Gossypium hirsutum, Brassica napus, Arachis hypogaea) were sown in plastic pots (10 cm diameter) with nutrient soil and bottom holes. After sowing, the seeds were lightly covered with soil, and the soil was moistened via bottom water absorption. The pots were placed in a constant-temperature light-controlled growth chamber for 24 hours before soil spraying. Spraying was performed using a 3WP-2000 walking-type spray tower (produced by the Nanjing Agricultural Mechanization Institute, Ministry of Agriculture) with a spindle speed of 96 mm/r, spray height of 300 mm, effective spray width of 350 mm, spray area of 0.35 m^2, and nozzle flow rate of 390 mL/min.
(§2) After treatment, the test materials were air-dried naturally in the laboratory and then transferred to the growth chamber. Results were assessed 14-30 days later.
(§3) Post-emergence: Seeds of gramineous weeds (Echinochloa crusgalli, Echinochloa crusgalli var. zelayensis, Echinochloa phyllopogon, Eleusine indica, Digitaria sanguinalis, Leptochloa chinensis, Setaria viridis, Alopecurus japonicus Steud, Beckmannia syzigachne, Polypogon fugax, Alopecurus aequalis, Lolium multiflorum, Poa annua, Aegilops tataschii, Avena fatua, Alopecurus myosuroides, Bromus japonicus), broadleaf weeds (Eclipta prostrata, Amaranthus retroflexus, Rorippa indica, Myosoton aquaticum, Veronica didyma, Galium aparine, Solanum nigrum, Xanthium sibiricum, Conyza canadensis, Sesbania cannabina, Sagittaria trifolia), and Cyperus iria (Cyperus iria, Scirpus juncoides, Cyperus difformis, etc.) were sown in plastic pots (7 cm diameter) with nutrient soil and bottom holes. Crop seeds (including Oryza sativa subsp. indica, Oryza sativa subsp. japonica, Oryza sativa L. var. Glutinosa matsum, Triticum aestivum, Zea mays, Sorghum bicolor, Setaria italica, Glycine max, Gossypium hirsutum, Brassica napus, Arachis hypogaea) were sown in plastic pots (10 cm diameter) with nutrient soil and bottom holes. After sowing, the pots were placed in the growth chamber until the plants reached the 3-6 leaf stage for foliar spraying. Post-treatment, the materials were air-dried naturally and returned to the growth chamber. Results were assessed 14-21 days later.
(§4) • A: Fresh weight inhibition rate≥80% to 100%; • B: Fresh weight inhibition rate[…] to <80%; • C: Fresh weight inhibition rate≥40% to <60%; • D: Fresh weight inhibition rate≥20% to <40%; • E: Fresh weight inhibition rate<20%; • NT: Not tested.
(§5) Using the above method, the herbicidal activity and crop safety of the present compounds were compared with structurally similar known compounds (CK1, CK2, CK3, CK4: compounds 4-756, 4-759, 1-557, 1-563 from WO2012028579A1; CK5: compound 290-1 from WO2013087577A1; CK6: compound 1-129 from WO2011035874A1).

[2] = system: Oryza sativa subsp. indica; assay: as above
Excerpt: as §1, §2, §3, §4, §5

[3] = system: Oryza sativa subsp. japonica; assay: as above
Excerpt: as §1, §2, §3, §4, §5

Echinochloa crusgalli [4] = assay: Greenhouse herbicidal activity assay, post-emergence; conditions: Post-emergence test, rate 150 g a.i./hm^2, grade by fresh weight inhibition rate
Summary of the method: (§6)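 Graded A (≥80%) to E (<20%) by fresh weight inhibition, read 14-21 days after spraying. Plants were pot-grown in a growth chamber and received foliar application at the 3-6 leaf stage, being air-dried and returned to the chamber afterwards.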

Leptochloa chinensis = assay: as above; conditions: Post-emergence test, rate 150 g a.i./hm^2; grade by fresh weight inhibition rate
Summary of the method: as §6

Cyperus iria = assay: as above; conditions: Post-emergence test, rate 150 g a.i./hm^2; grade by fresh weight inhibition rate
Summary of the method: as §6

Digitaria sanguinalis = assay: as above; conditions: Post-emergence test, rate 150 g a.i./hm^2; grade by fresh weight inhibition rate
Summary of the method: as §6

Eclipta prostrata = assay: as above; conditions: Post-emergence test, rate 150 g a.i./hm^2; grade by fresh weight inhibition rate
Summary of the method: as §6

| Compound | inhibition at 75 g/ha (Echinochloa crusgalli [1]; Rate 75 g/ha) [%] | inhibition at 150 g/ha (Echinochloa crusgalli [1]; Rate 150 g/ha) [%] | Oryza sativa subsp. indica, grading of fresh weight inhibition rate (crop safety) ([2]; Rate 75 g/ha) | Oryza sativa subsp. indica, grading of fresh weight inhibition rate (crop safety) ([2]; Rate 150 g/ha) | Oryza sativa subsp. japonica, grading of fresh weight inhibition rate (crop safety) ([3]; Rate 75 g/ha) | Oryza sativa subsp. japonica, grading of fresh weight inhibition rate (crop safety) ([3]; Rate 150 g/ha) | pest or weed control at 150 g/ha (Echinochloa crusgalli [4]; Echinochloa crus-galli, read-out: Control efficacy grade, Echinochloa crusgalli) [%] | Echinochloa crusgalli, control efficacy grading (fresh weight inhibition rate) (Echinochloa crusgalli [1]; Rate 150 g/ha) | Control efficacy grade, Echinochloa crusgalli (Echinochloa crusgalli [4]) | Echinochloa crusgalli, control efficacy grading (fresh weight inhibition rate) (Echinochloa crusgalli [1]; Rate 75 g/ha) | Control efficacy grade, Leptochloa chinensis (Leptochloa chinensis) | Control efficacy grade, Cyperus iria (Cyperus iria) | Control efficacy grade, Digitaria sanguinalis (Digitaria sanguinalis) | Control efficacy grade, Eclipta prostrata (Eclipta prostrata) | Oryza sativa subsp. indica, grading of fresh weight inhibition rate (crop safety) ([2]; Rate 18.75 g/ha) | Oryza sativa subsp. japonica, grading of fresh weight inhibition rate (crop safety) ([3]; Rate 18.75 g/ha) |
| --- | --- | --- | --- | --- | --- | --- | --- | --- | --- | --- | --- | --- | --- | --- | --- | --- |
| CCC[S+]([O-])c1c(S(C)(=O)=O)ccc(C(=O)N(C)c2nnc(C)o2)c1Cl (racemic) [Compound 3-787, 2-chloro-N-methyl-N-(5-methyl-1,3,4-oxadiazol-2-yl)-4-(methylsulfonyl)-3-(propylsulfinyl)benzamide] | 80 to 100 | 80 to 100 | E (Fresh weight inhibition rate<20%) | E (Fresh weight inhibition rate<20%) | E (Fresh weight inhibition rate<20%) | E (Fresh weight inhibition rate<20%) | 80 to 100 | – | – | – | – | – | – | – | – | – |
| CCC[S+]([O-])c1c(S(C)(=O)=O)ccc(C(=O)N(C)c2nnc(CC)o2)c1Cl (racemic) [Compound 3-798] | – | – | – | E (Fresh weight inhibition rate<20%) | – | E (Fresh weight inhibition rate<20%) | – | A (Fresh weight inhibition rate≥80% to 100%) | A (Fresh weight inhibition rate≥80% to 100%) | – | – | – | – | – | – | – |
| CCC[S+]([O-])c1c(S(C)(=O)=O)ccc(C(=O)N(C)c2nnc(C)o2)c1Cl (single isomer, unassigned) [Compound 3-788] | – | – | E (Fresh weight inhibition rate<20%) | E (Fresh weight inhibition rate<20%) | E (Fresh weight inhibition rate<20%) | E (Fresh weight inhibition rate<20%) | – | A (Fresh weight inhibition rate≥80% to 100%) | A (Fresh weight inhibition rate≥80% to 100%) | A (Fresh weight inhibition rate≥80% to 100%) | A (Fresh weight inhibition rate≥80% to 100%) | – | – | – | – | – |
| CCC(C)S(=O)(=O)c1c(S(C)(=O)=O)ccc(C(=O)Nc2nnnn2C)c1Cl (racemic) [Compound 1-24] | – | – | – | E (Fresh weight inhibition rate<20%) | – | E (Fresh weight inhibition rate<20%) | – | A (Fresh weight inhibition rate≥80% to 100%) | A (Fresh weight inhibition rate≥80% to 100%) | – | A (Fresh weight inhibition rate≥80% to 100%) | A (Fresh weight inhibition rate≥80% to 100%) | B (Fresh weight inhibition rate≥260% to <80%) | A (Fresh weight inhibition rate≥80% to 100%) | – | – |
| CCS(=O)(=O)c1c(S(C)(=O)=O)ccc(C(=O)Nc2nnnn2C)c1Cl [CK2, reference compound] | 80 to 100 | 80 to 100 | C (Fresh weight inhibition rate≥40% to <60%) | B (Fresh weight inhibition rate≥260% to <80%) | C (Fresh weight inhibition rate≥40% to <60%) | B (Fresh weight inhibition rate≥260% to <80%) | – | – | – | – | – | – | – | – | C (Fresh weight inhibition rate≥40% to <60%) | C (Fresh weight inhibition rate≥40% to <60%) |
| CCC[S+]([O-])c1c(S(C)(=O)=O)ccc(C(=O)N(C)c2nnco2)c1Cl (racemic) [Compound 3-795] | – | – | – | E (Fresh weight inhibition rate<20%) | – | E (Fresh weight inhibition rate<20%) | – | A (Fresh weight inhibition rate≥80% to 100%) | A (Fresh weight inhibition rate≥80% to 100%) | – | – | – | – | – | – | – |
| Cn1nnnc1NC(=O)c1ccc(S(C)(=O)=O)c(S(=O)(=O)C2CCCC2)c1Cl [Compound 1-46] | – | – | – | E (Fresh weight inhibition rate<20%) | – | E (Fresh weight inhibition rate<20%) | – | A (Fresh weight inhibition rate≥80% to 100%) | A (Fresh weight inhibition rate≥80% to 100%) | – | – | A (Fresh weight inhibition rate≥80% to 100%) | – | A (Fresh weight inhibition rate≥80% to 100%) | – | – |
| Cn1nnnc1NC(=O)c1ccc(S(C)(=O)=O)c(S(=O)(=O)C2CC2)c1Cl [Compound 1-36] | – | – | – | E (Fresh weight inhibition rate<20%) | – | E (Fresh weight inhibition rate<20%) | – | A (Fresh weight inhibition rate≥80% to 100%) | A (Fresh weight inhibition rate≥80% to 100%) | – | A (Fresh weight inhibition rate≥80% to 100%) | A (Fresh weight inhibition rate≥80% to 100%) | A (Fresh weight inhibition rate≥80% to 100%) | A (Fresh weight inhibition rate≥80% to 100%) | – | – |
| Cn1nnnc1NC(=O)c1ccc(S(C)(=O)=O)c(S(=O)(=O)C2CCC2)c1Cl [Compound 1-41] | – | – | – | E (Fresh weight inhibition rate<20%) | – | E (Fresh weight inhibition rate<20%) | – | A (Fresh weight inhibition rate≥80% to 100%) | A (Fresh weight inhibition rate≥80% to 100%) | – | A (Fresh weight inhibition rate≥80% to 100%) | A (Fresh weight inhibition rate≥80% to 100%) | – | A (Fresh weight inhibition rate≥80% to 100%) | – | – |
